Article PMC9516332 (Frontiers in Oncology, 2022)
Like-named read-outs stand apart in the source and are kept apart here.

Columns and labels:
[1] = test system: 134 cancer cell lines; assay: Cell viability assay (ATPlite, 72 hours), IC50 on cancer cell line panel
[2] = target: panel of 255 wild-type kinases (Homo sapiens, UniProt Q9H422); assay: Kinase panel profiling at 1 µmol/L (MSA or IMAP), percentage inhibition; format: biochemical; conditions: read-out: %-inhibition at 1 µmol/L, HIPK3
[3] = target: panel of 255 wild-type kinases (Homo sapiens, UniProt Q16816); assay: as above; format: biochemical; conditions: read-out: %-inhibition at 1 µmol/L, PHKG1
[4] = target: panel of 255 wild-type kinases (Homo sapiens, UniProt Q13882); assay: as above; format: biochemical; conditions: read-out: %-inhibition BRK
[5] = target: panel of 255 wild-type kinases (Homo sapiens, UniProt P48729); assay: as above; format: biochemical; conditions: read-out: %-inhibition at 1 µmol/L, CK1α
[6] = target: panel of 255 wild-type kinases (Homo sapiens, UniProt P06241); assay: as above; format: biochemical; conditions: read-out: %-inhibition at 1 µmol/L, FYN [isoform a]
[7] = test system: AP-1060 (ETV6-NTRK3); assay: Cell viability assay; conditions: read-out: IC50 in cell proliferation assay

CNC(=O)c1ccc(-c2cnc3ncc(Cc4ccc5ncccc5c4)n3n2)cc1F [capmatinib]
> 31.6 µM: IC50 ([1]; HEC-6, read-out: IC50 in cell proliferation assay) | IC50 ([1]; Homo sapiens, 769-P, read-out: IC50 in cell proliferation assay) | IC50 ([1]; Homo sapiens, 786-0, read-out: IC50 in cell proliferation assay) | IC50 ([1]; Homo sapiens, A 172, read-out: IC50 in cell proliferation assay) | IC50 ([1]; Homo sapiens, A204, read-out: IC50 in cell proliferation assay) | IC50 ([1]; Homo sapiens, A498, read-out: IC50 in cell proliferation assay) | IC50 ([1]; Homo sapiens, A549, read-out: IC50 in cell proliferation assay) | IC50 ([1]; Homo sapiens, A704, read-out: IC50 in cell proliferation assay) | IC50 ([1]; Homo sapiens, A-375, read-out: IC50 in cell proliferation assay) | IC50 ([1]; Homo sapiens, ACHN, read-out: IC50 in cell proliferation assay) | IC50 ([1]; Homo sapiens, AN3-CA, read-out: IC50 in cell proliferation assay) | IC50 ([1]; Homo sapiens, ASPC1, read-out: IC50 in cell proliferation assay) | IC50 ([1]; Homo sapiens, BT-20, read-out: IC50 in cell proliferation assay) | IC50 ([1]; Homo sapiens, BT-474, read-out: IC50 in cell proliferation assay) | IC50 ([1]; Homo sapiens, BT-549, read-out: IC50 in cell proliferation assay) | IC50 ([1]; Homo sapiens, BXPC-3, read-out: IC50 in cell proliferation assay) | IC50 ([1]; Homo sapiens, C-33-A, read-out: IC50 in cell proliferation assay) | IC50 ([1]; Homo sapiens, CAL-27, read-out: IC50 in cell proliferation assay) | IC50 ([1]; Homo sapiens, CCF-STTG1, read-out: IC50 in cell proliferation assay) | IC50 ([1]; Homo sapiens, COLO 205, read-out: IC50 in cell proliferation assay) | IC50 ([1]; Homo sapiens, COLO-829, read-out: IC50 in cell proliferation assay) | IC50 ([1]; Homo sapiens, DLD-1, read-out: IC50 in cell proliferation assay) | IC50 ([1]; Homo sapiens, DU-145, read-out: IC50 in cell proliferation assay) | IC50 ([1]; Homo sapiens, Daoy, read-out: IC50 in cell proliferation assay) | IC50 ([1]; Homo sapiens, DoTc2-4510, read-out: IC50 in cell proliferation assay) | IC50 ([1]; Homo sapiens, EOL1, read-out: IC50 in cell proliferation assay) | IC50 ([1]; Homo sapiens, FaDu, read-out: IC50 in cell proliferation assay) | IC50 ([1]; Homo sapiens, G-361, read-out: IC50 in cell proliferation assay) | IC50 ([1]; Homo sapiens, HCC4006, read-out: IC50 in cell proliferation assay) | IC50 ([1]; Homo sapiens, HCT-15, read-out: IC50 in cell proliferation assay) | IC50 ([1]; Homo sapiens, HCT-116, read-out: IC50 in cell proliferation assay) | IC50 ([1]; Homo sapiens, HEC-1, read-out: IC50 in cell proliferation assay) | IC50 ([1]; Homo sapiens, HEC-1B, read-out: IC50 in cell proliferation assay) | IC50 ([1]; Homo sapiens, HL-60, read-out: IC50 in cell proliferation assay) | IC50 ([1]; Homo sapiens, HT, read-out: IC50 in cell proliferation assay) | IC50 ([1]; Homo sapiens, HT-1080, read-out: IC50 in cell proliferation assay) | IC50 ([1]; Homo sapiens, Hs-578T, read-out: IC50 in cell proliferation assay) | IC50 ([1]; Homo sapiens, HuTu80, read-out: IC50 in cell proliferation assay) | IC50 ([1]; Homo sapiens, J82, read-out: IC50 in cell proliferation assay) | IC50 ([1]; Homo sapiens, Jurkat E6.1, read-out: IC50 in cell proliferation assay) | IC50 ([1]; Homo sapiens, K562, read-out: IC50 in cell proliferation assay) | IC50 ([1]; Homo sapiens, KATO III, read-out: IC50 in cell proliferation assay) | IC50 ([1]; Homo sapiens, KG-1, read-out: IC50 in cell proliferation assay) | IC50 ([1]; Homo sapiens, KLE, read-out: IC50 in cell proliferation assay) | IC50 ([1]; Homo sapiens, KU812, read-out: IC50 in cell proliferation assay) | IC50 ([1]; Homo sapiens, LC-2-ad, read-out: IC50 in cell proliferation assay) | IC50 ([1]; Homo sapiens, LNCaP-Clone-FGC, read-out: IC50 in cell proliferation assay) | IC50 ([1]; Homo sapiens, LS174T, read-out: IC50 in cell proliferation assay) | IC50 ([1]; Homo sapiens, LS-411N, read-out: IC50 in cell proliferation assay) | IC50 ([1]; Homo sapiens, MCF7, read-out: IC50 in cell proliferation assay) | IC50 ([1]; Homo sapiens, MDA-MB-231, read-out: IC50 in cell proliferation assay) | IC50 ([1]; Homo sapiens, MDA-MB-453, read-out: IC50 in cell proliferation assay) | IC50 ([1]; Homo sapiens, MG-63, read-out: IC50 in cell proliferation assay) | IC50 ([1]; Homo sapiens, MIA PaCa-2, read-out: IC50 in cell proliferation assay) | IC50 ([1]; Homo sapiens, MOLT-4, read-out: IC50 in cell proliferation assay) | IC50 ([1]; Homo sapiens, MeWo, read-out: IC50 in cell proliferation assay) | IC50 ([1]; Homo sapiens, NCCIT, read-out: IC50 in cell proliferation assay) | IC50 ([1]; Homo sapiens, NCI-H82, read-out: IC50 in cell proliferation assay) | IC50 ([1]; Homo sapiens, NCI-H460, read-out: IC50 in cell proliferation assay) | IC50 ([1]; Homo sapiens, NCI-H661, read-out: IC50 in cell proliferation assay) | IC50 ([1]; Homo sapiens, NCI-H716, read-out: IC50 in cell proliferation assay) | IC50 ([1]; Homo sapiens, NCI-H1975, read-out: IC50 in cell proliferation assay) | IC50 ([1]; Homo sapiens, NCI-H2228, read-out: IC50 in cell proliferation assay) | IC50 ([1]; Homo sapiens, OVCAR-3, read-out: IC50 in cell proliferation assay) | IC50 ([1]; Homo sapiens, PFSK-1, read-out: IC50 in cell proliferation assay) | IC50 ([1]; Homo sapiens, RL95-2, read-out: IC50 in cell proliferation assay) | IC50 ([1]; Homo sapiens, RPMI-7951, read-out: IC50 in cell proliferation assay) | IC50 ([1]; Homo sapiens, RS4-11, read-out: IC50 in cell proliferation assay) | IC50 ([1]; Homo sapiens, SHP77, read-out: IC50 in cell proliferation assay) | IC50 ([1]; Homo sapiens, SK-BR-3, read-out: IC50 in cell proliferation assay) | IC50 ([1]; Homo sapiens, SK-N-AS, read-out: IC50 in cell proliferation assay) | IC50 ([1]; Homo sapiens, SK-N-FI, read-out: IC50 in cell proliferation assay) | IC50 ([1]; Homo sapiens, SK-N-MC, read-out: IC50 in cell proliferation assay) | IC50 ([1]; Homo sapiens, SNU-16, read-out: IC50 in cell proliferation assay) | IC50 ([1]; Homo sapiens, SNU-C2B, read-out: IC50 in cell proliferation assay) | IC50 ([1]; Homo sapiens, SU-DHL-1, read-out: IC50 in cell proliferation assay) | IC50 ([1]; Homo sapiens, SU-DHL-6, read-out: IC50 in cell proliferation assay) | IC50 ([1]; Homo sapiens, SUP-T1, read-out: IC50 in cell proliferation assay) | IC50 ([1]; Homo sapiens, SW48, read-out: IC50 in cell proliferation assay) | IC50 ([1]; Homo sapiens, SW480, read-out: IC50 in cell proliferation assay) | IC50 ([1]; Homo sapiens, SW626, read-out: IC50 in cell proliferation assay) | IC50 ([1]; Homo sapiens, SW780, read-out: IC50 in cell proliferation assay) | IC50 ([1]; Homo sapiens, SW872, read-out: IC50 in cell proliferation assay) | IC50 ([1]; Homo sapiens, SW900, read-out: IC50 in cell proliferation assay) | IC50 ([1]; Homo sapiens, SW948, read-out: IC50 in cell proliferation assay) | IC50 ([1]; Homo sapiens, SW982, read-out: IC50 in cell proliferation assay) | IC50 ([1]; Homo sapiens, SW-620, read-out: IC50 in cell proliferation assay) | IC50 ([1]; Homo sapiens, T98G, read-out: IC50 in cell proliferation assay) | IC50 ([1]; Homo sapiens, TCC-SUP, read-out: IC50 in cell proliferation assay) | IC50 ([1]; Homo sapiens, THP-1, read-out: IC50 in cell proliferation assay) | IC50 ([1]; Homo sapiens, U2OS, read-out: IC50 in cell proliferation assay) | IC50 ([1]; Homo sapiens, U-118-MG, read-out: IC50 in cell proliferation assay) | IC50 ([1]; Homo sapiens, UMUC3, read-out: IC50 in cell proliferation assay) | IC50 ([1]; Hs766T, read-out: IC50 in cell proliferation assay) | IC50 ([1]; L-82, read-out: IC50 in cell proliferation assay) | IC50 [7]
-0.67%: inhibition at 1 µM [4]
29.6 µM: IC50 ([1]; Homo sapiens, A-427, read-out: IC50 in cell proliferation assay)
5.52 µM: IC50 ([1]; Homo sapiens, AU565, read-out: IC50 in cell proliferation assay)
9.45 µM: IC50 ([1]; Homo sapiens, NCI-H1650, read-out: IC50 in cell proliferation assay)
0.023 µM: IC50 ([1]; Homo sapiens, U-87 MG, read-out: IC50 in cell proliferation assay)
1.95 µM: IC50 ([1]; Homo sapiens, MV4-11, read-out: IC50 in cell proliferation assay)
28.3 µM: IC50 ([1]; Homo sapiens, CCRF-CEM, read-out: IC50 in cell proliferation assay)
0.00186 µM: IC50 ([1]; Homo sapiens, LoVo, read-out: IC50 in cell proliferation assay)
3.02 µM: IC50 ([1]; Homo sapiens, Rec1, read-out: IC50 in cell proliferation assay)
6.01 µM: IC50 ([1]; Homo sapiens, MOLM-13, read-out: IC50 in cell proliferation assay)
7.23 µM: IC50 ([1]; Homo sapiens, SW837, read-out: IC50 in cell proliferation assay)
7.37 µM: IC50 ([1]; Rh30, read-out: IC50 in cell proliferation assay)
0.00123 µM: IC50 ([1]; Homo sapiens, Hs746T, read-out: IC50 in cell proliferation assay)
-5.42%: inhibition at 1 µM [5]
9.3 µM: IC50 ([1]; Homo sapiens, KMS-11, read-out: IC50 in cell proliferation assay)
9.7 µM: IC50 ([1]; Homo sapiens, SK-N-SH, read-out: IC50 in cell proliferation assay)
0.000951 µM: IC50 ([1]; Homo sapiens, SNU-5, read-out: IC50 in cell proliferation assay)
21.4 µM: IC50 ([1]; Homo sapiens, DU-4475, read-out: IC50 in cell proliferation assay)
-2%: inhibition at 1 µM [6]
30.8 µM: IC50 ([1]; Homo sapiens, MDA-MB-468, read-out: IC50 in cell proliferation assay)
8.39 µM: IC50 ([1]; Homo sapiens, HCC827, read-out: IC50 in cell proliferation assay)
0.004 µM: IC50 ([1]; Homo sapiens, MKN-45, read-out: IC50 in cell proliferation assay)
-3%: inhibition at 1 µM [2]
25 µM: IC50 ([1]; Homo sapiens, Kasumi 1, read-out: IC50 in cell proliferation assay)
-2.39%: inhibition at 1 µM [3]
